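1) Cells in 96-well plates. 2) Compound, 48 h, 5 concentrations. 3) Linear interpolation between surrounding doses. 4) Unreached endpoint = highest concentration. Abbreviation: GI50, concentration required for 50% inhibition of growth. TGI: total growth inhibition.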
How the values were obtained:
Experiment in all cases: growth of human tumour cells (NCI), 48 h
[1] = test system: M14 melanoma
[2] = test system: SR leukemia
[3] = test system: HOP-92 NSCLC
[4] = test system: SK-OV-3 ovarian
[5] = test system: COLO 205 colon
[6] = test system: UACC-62 melanoma
[7] = test system: HCC-2998 colon
[8] = test system: UACC-257 melanoma
[9] = test system: NCI-H522 lung
[10] = test system: SN12C renal

Row | Structure (SMILES) | TGI [1] | TGI [2] | TGI [3] | TGI [4] | TGI [5] | TGI [6] | TGI [7] | TGI [8] | TGI [9] | TGI [10] | GI50 [1] | GI50 [2] | GI50 [3] | GI50 [4] | GI50 [5] | GI50 [6] | GI50 [7] | GI50 [8] | GI50 [9] | GI50 [10]
1 | CC(=O)C1=CSC2[C@H](NC(=O)Cc3ccccc3)C(=O)N2C1C(=O)OC(c1ccccc1)c1ccccc1 (stereo not given in full) | > 100 µM | > 100 µM | > 100 µM | > 100 µM | > 100 µM | > 100 µM | > 100 µM | > 100 µM | > 100 µM | > 100 µM | – | – | – | – | – | – | – | – | – | –
2 | Cc1cc(N/N=C/c2nc(-c3ccc(Br)cc3)oc2C)c2cc(Cl)ccc2n1 | > 100 µM | > 100 µM | > 100 µM | > 100 µM | > 100 µM | > 100 µM | > 100 µM | > 100 µM | > 100 µM | > 100 µM | > 100 µM | > 100 µM | > 100 µM | > 100 µM | > 100 µM | > 100 µM | > 100 µM | > 100 µM | > 100 µM | > 100 µM
3 | CCOC1(COP(=O)(OCc2ccccc2)OCc2ccccc2)COC(COP(=O)(OCc2ccccc2)OCc2ccccc2)(OCC)CO1 (stereo not given) | > 100 µM | > 100 µM | > 100 µM | > 100 µM | > 100 µM | > 100 µM | > 100 µM | > 100 µM | > 100 µM | > 100 µM | – | – | – | – | – | – | – | – | – | –
4 | CCOC(=O)C1=C(O)C(=O)c2ccsc2C1=O | > 100 µM | > 100 µM | > 100 µM | > 100 µM | > 100 µM | > 100 µM | > 100 µM | > 100 µM | > 100 µM | > 100 µM | – | – | – | – | – | – | – | – | – | –
5 | COc1ccc(OC)c(NC(=O)CCC/C(CC(=O)c2ccc(O)c(OC)c2)=N\NC(=O)C[N+](C)(C)C)c1 | > 100 µM | > 100 µM | > 100 µM | > 100 µM | > 100 µM | > 100 µM | > 100 µM | > 100 µM | > 100 µM | > 100 µM | – | – | – | – | – | – | – | – | – | –
6 | Cc1cc2c(C)n(Cc3ccc(Cl)cc3Cl)nc2c(C#N)c1C | > 100 µM | > 100 µM | 36.9 µM | 47.4 µM | > 100 µM | > 100 µM | > 100 µM | > 100 µM | > 100 µM | > 100 µM | – | – | – | – | – | – | – | – | – | –
7 | CNC(=O)OCc1c(COC(=O)NC)c(C)n(-c2ccc(Br)cc2)c1C | 32.5 µM | > 100 µM | 31 µM | 34.2 µM | 27.5 µM | 18.5 µM | 32.2 µM | 32.3 µM | 25.9 µM | 32.8 µM | – | – | – | – | – | – | – | – | – | –
8 | O=C1C(=O)c2c(nc3ccc(Cl)cn23)-c2ccccc21 | 3.05 µM | 1.44 µM | 1.98 µM | 3.31 µM | 3.54 µM | 0.904 µM | 3.96 µM | 0.803 µM | 2 µM | 0.567 µM | 1.3 µM | 0.348 µM | 0.674 µM | 1.71 µM | 1.79 µM | 0.285 µM | 2.06 µM | 0.284 µM | 0.668 µM | 0.219 µM
9 | C=CC(=O)Nc1cccc(C)c1Nc1cc(-c2cccnc2Cc2c(C)c(OC)cc(OC)c2C)ncn1 | 97.5 µM | > 100 µM | 47.3 µM | > 100 µM | > 100 µM | 25.9 µM | 30.6 µM | > 100 µM | 36.2 µM | 64.9 µM | 22.5 µM | 4.41 µM | 9.91 µM | 34.5 µM | 13.1 µM | 10.3 µM | 16 µM | 23.7 µM | 11.6 µM | 11.2 µM

Reference: PubChem BioAssay (NCI)
